Experimental data taken from patent publication US20170173070A1, “METHODS OF ADMINISTERING LMWH” (MOMENTA PHARMACEUTICALS, INC., priority 2014, published 2017).
“Also recorded” adds a separate entry of the source.

Legend:
[1] = test system: Wnt/β-catenin signaling pathway; experiment: Expression of members of the Wnt/β-catenin signaling pathway; format: in vivo; conditions: gemcitabine monotherapy
Description: FIGS. 6A and 6B depict the effect of gemcitabine treatment on the Wnt/β-catenin signaling pathway.
FIGS. 7A and 7B depict the effect of pretreatment with M402 followed by subsequent gemcitabine/M402 combination treatment on the Wnt/β-catenin signaling pathway.
(§1) Tumor cells having increased Wnt/β-catenin signaling are known to be invasive. […] This observation supports that gemcitabine monotherapy results in an invasive tumor phenotype. To confirm that gemcitabine monotherapy results in an invasive tumor phenotype, a cohort of KPFMC mice were exposed to gemcitabine monotherapy (100 mg/kg), starting at day 45 after birth. The tumors were subsequently harvested at the clinical humane endpoint. […] This observation supports that gemcitabine monotherapy results in an invasive tumor phenotype.
This observation supports that M402 inhibits the gemcitabine induced invasive tumor phenotype.

[2] = test system: pancreatic tumors of KPFMC mice; experiment: Histological examination of KPFMC pancreatic tumors for invasion (intestine, biliary tract); format: in vivo
Description: (§2) FIG. 3A depicts H&E sections of pancreatic tumors from KPFMC mice at clinical endpoint. The tumors were analyzed microscopically to identify intestinal invasion (upper panel). […] Expression values are depicted in the heat map. FIG. 3D is a bar graph showing the influence of gemcitabine treatment on the invasive behavior of tumor cells. The cells were analyzed by quantification of double positive E-cadherin and Fsp1 cells in tumor sections of mice treated with saline and gemcitabine until clinical endpoint.
as §1

[3] = test system: pancreatic ductal adenocarcinoma (PDA); conditions: cited from earlier work
[4] = test system: tumor cells undergoing EMT in KPFMC pancreatic tumors; experiment: Quantification of tumor cells undergoing EMT (E-cadherin/Fsp1 double positive cells) in KPFMC tumor sections; format: in vivo, mice; conditions: gemcitabine vs saline, treated until clinical endpoint
Description: (§3) Expression values are depicted in the heat map. Mice were treated from day 30 after birth until day 51. […] FIG. 4C is an immunofluorescence image of a section from a saline treated KPFMC mouse pancreas co-stained with E-cadherin and Fsp1 showing high magnification view of cells that co-express both the epithelial and mesenchymal marker (left panel).
(§4) Expression values are depicted in the heat map. Color intensities indicate the fold change with M402+gemcitabine combination therapy over M402. FIG. 5B is a bar graph showing the influence of M402 treatment on the invasive behavior of tumor cells induced by gemcitabine. Tumor sections derived from mice treated with saline and gemcitabine until clinical endpoint were analyzed by quantification of cells positive for E-cadherin and Fsp1 in tumor. FIG. 5C is a bar graph showing the quantification of intact Islets of Langerhans (lower panel) from pancreatic tumors after the indicated treatments. (Means±SD are depicted; *P<0.05, NS P>0.05, Student's t test).
Tumor cells having increased Wnt/β-catenin signaling are known to be invasive. […] This observation supports that gemcitabine monotherapy results in an invasive tumor phenotype. To confirm that gemcitabine monotherapy results in an invasive tumor phenotype, a cohort of KPFMC mice were exposed to gemcitabine monotherapy (100 mg/kg), starting at day 45 after birth. […]

RTK phosphorylation = experiment: Phospho-RTK array analysis of KPFMC pancreatic tumors; format: in vivo, mice; conditions: gemcitabine treated KPFMC tumors
Description: as §2, §3
as §4, with “FIG. 5B is a bar graph showing the influence of M402 treatment on the invasive behavior of tumor cells induced by gemcitabine.” left out, “(Means±SD are depicted; *P<0.05, NS P>0.05, Student's t test).” left out

SMILES: Nc1ccn([C@@H]2O[C@H](CO)[C@@H](O)C2(F)F)c(=O)n1 [gemcitabine]
- expression of members of the Wnt/β-catenin signaling pathway [1]: increases expression of several members of the Wnt/β-catenin signaling pathway
- biliary tract obstruction / obstructive jaundice (invasion into the biliary tree) ([2]; gemcitabine monotherapy 100 mg/kg from day 45, clinical endpoint): obstructive jaundice; also recorded: invasion increased
- intestinal invasion of pancreatic tumors ([2]; gemcitabine monotherapy 100 mg/kg from day 45 after birth, clinical endpoint, vs saline): increased invasion into the adjacent intestine; also recorded: number of mice with intestinal invasion increased
- overall survival ([3]; adjuvant gemcitabine post surgical removal of a pancreatic tumor): prolong overall survival
- survival benefit ([3]; gemcitabine monotherapy in the absence of surgery): failed to show an extensive survival benefit
- tumor cells undergoing EMT (E-cadherin/Fsp1 double positive cells) [4]: increase in tumor cells undergoing EMT
- RTK phosphorylation in pancreatic tumors (RTK phosphorylation): increased the phosphorylation of several RTKs; also recorded: increase in RTK phosphorylation
